{"source": "patent US12233081B2", "about": "“Hygromycin a compounds and methods of treating spirochete diseases” (priority 2018, dated 2025)", "tested_on": "gut microbiome", "assay": "gut microbiome 16S rRNA sequencing of stool of infected, treated mice", "conditions": "oral 50 mg/kg every 12 hours for 5 days; for Bacteroidaceae change in percent relative abundance / Streptococcaceae change in percent relative abundance: 50 mg/kg", "data": [{"smiles": "CC(=O)[C@H]1O[C@@H](Oc2ccc(/C=C(\\C)C(=O)N[C@@H]3[C@H](O)[C@@H](O)[C@H]4OCO[C@H]4[C@@H]3O)cc2O)[C@@H](O)[C@@H]1O", "note": "[Hygromycin A]", "values": [{"measurement": "Aerococcaceae change in percent relative abundance", "value": 0.000, "unit": "%"}, {"measurement": "Anaerolineaceae change in percent relative abundance", "value": 0.000, "unit": "%"}, {"measurement": "Anaeroplasmataceae change in percent relative abundance", "value": "−0.016", "unit": "%"}, {"measurement": "Anaplasmataceae change in percent relative abundance", "value": 0.000, "unit": "%"}, {"measurement": "Aspergillaceae change in percent relative abundance", "value": 0.000, "unit": "%"}, {"measurement": "Asteraceae change in percent relative abundance", "value": 0.000, "unit": "%"}, {"measurement": "Bacillaceae change in percent relative abundance", "value": "−0.009", "unit": "%"}, {"measurement": "Bacillales change in percent relative abundance", "value": "−0.092", "unit": "%"}, {"measurement": "Bifidobacteriaceae change in percent relative abundance", "value": 0.013, "unit": "%"}, {"measurement": "Brucellaceae change in percent relative abundance", "value": 0.000, "unit": "%"}, {"measurement": "Camobacteriaceae change in percent relative abundance", "value": 0.005, "unit": "%"}, {"measurement": "Chitinophagaceae change in percent relative abundance", "value": 0.000, "unit": "%"}, {"measurement": "Christensenellaceae change in percent relative abundance", "value": 0.000, "unit": "%"}, {"measurement": "Clostridiaceae change in percent relative abundance", "value": "−5.257", "unit": "%"}, {"measurement": "Clostridiales change in percent relative abundance", "value": "−0.174", "unit": "%"}, {"measurement": "Clostridiales family xi. incertae sedis change in percent relative abundance", "value": "−0.032", "unit": "%"}, {"measurement": "Clostridiales family xiii. incertae sedis change in percent relative abundance", "value": "−0.007", "unit": "%"}, {"measurement": "Coriobacteriaceae change in percent relative abundance", "value": "−0.038", "unit": "%"}, {"measurement": "Corynebacteriaceae change in percent relative abundance", "value": 0.000, "unit": "%"}, {"measurement": "Cytophagaceae change in percent relative abundance", "value": "−0.001", "unit": "%"}, {"measurement": "Deferribacteraceae change in percent relative abundance", "value": "−1.462", "unit": "%"}, {"measurement": "Defluviitaleaceae change in percent relative abundance", "value": "−0.002", "unit": "%"}, {"measurement": "Desulfobacteraceae change in percent relative abundance", "value": "−0.001", "unit": "%"}, {"measurement": "Enterobacteriaceae change in percent relative abundance", "value": "−0.026", "unit": "%"}, {"measurement": "Enterococcaceae change in percent relative abundance", "value": 6.546, "unit": "%"}, {"measurement": "Erysipelotrichaceae change in percent relative abundance", "value": 1.506, "unit": "%"}, {"measurement": "Eubacteriaceae change in percent relative abundance", "value": "−6.405", "unit": "%"}, {"measurement": "Fabaceae change in percent relative abundance", "value": 0.000, "unit": "%"}, {"measurement": "Flavobacteriaceae change in percent relative abundance", "value": "−0.001", "unit": "%"}, {"measurement": "Francisellaceae change in percent relative abundance", "value": 0.000, "unit": "%"}, {"measurement": "Fusobacteriaceae change in percent relative abundance", "value": 0.000, "unit": "%"}, {"measurement": "Gammaproteobacteria change in percent relative abundance", "value": "−0.025", "unit": "%"}, {"measurement": "Gloeobacteraceae change in percent relative abundance", "value": "−0.013", "unit": "%"}, {"measurement": "Gracilibacteraceae change in percent relative abundance", "value": "−0.072", "unit": "%"}, {"measurement": "Halomonadaceae change in percent relative abundance", "value": 0.000, "unit": "%"}, {"measurement": "Hylidae change in percent relative abundance", "value": 0.000, "unit": "%"}, {"measurement": "Kopriimonadaceae change in percent relative abundance", "value": 0.000, "unit": "%"}, {"measurement": "Lachnospiraceae change in percent relative abundance", "value": "−8.372", "unit": "%"}, {"measurement": "Lactobacillaceae change in percent relative abundance", "value": 22.074, "unit": "%"}, {"measurement": "Leuconostocaceae change in percent relative abundance", "value": 0.000, "unit": "%"}, {"measurement": "Methylobacteriaceae change in percent relative abundance", "value": 0.000, "unit": "%"}, {"measurement": "Microbacteriaceae change in percent relative abundance", "value": 0.000, "unit": "%"}, {"measurement": "Mucoraceae change in percent relative abundance", "value": 0.000, "unit": "%"}, {"measurement": "Nostocaceae change in percent relative abundance", "value": 0.000, "unit": "%"}, {"measurement": "Onagraceae change in percent relative abundance", "value": 0.000, "unit": "%"}, {"measurement": "Oscillatoriales change in percent relative abundance", "value": 0.001, "unit": "%"}, {"measurement": "Oscillospiraceae change in percent relative abundance", "value": "−0.009", "unit": "%"}, {"measurement": "Paenibacillaceae change in percent relative abundance", "value": "−0.002", "unit": "%"}, {"measurement": "Pasteurellaceae change in percent relative abundance", "value": 0.000, "unit": "%"}, {"measurement": "Pelobacteraceae change in percent relative abundance", "value": 0.000, "unit": "%"}, {"measurement": "Peptococcaceae change in percent relative abundance", "value": "−0.835", "unit": "%"}, {"measurement": "Peptoniphilaceae change in percent relative abundance", "value": 0.000, "unit": "%"}, {"measurement": "Peptostreptococcaceae change in percent relative abundance", "value": "−0.095", "unit": "%"}, {"measurement": "Physalacriaceae change in percent relative abundance", "value": 0.000, "unit": "%"}, {"measurement": "Poaceae change in percent relative abundance", "value": 0.007, "unit": "%"}, {"measurement": "Polyangiaceae change in percent relative abundance", "value": 0.000, "unit": "%"}, {"measurement": "Porphyromonadaceae change in percent relative abundance", "value": "−23.435", "unit": "%"}, {"measurement": "Prevotellaceae change in percent relative abundance", "value": "−0.285", "unit": "%"}, {"measurement": "Pseudomonadaceae change in percent relative abundance", "value": 0.000, "unit": "%"}, {"measurement": "Rhizobiaceae change in percent relative abundance", "value": 0.000, "unit": "%"}, {"measurement": "Rhodobacteraceae change in percent relative abundance", "value": 0.000, "unit": "%"}, {"measurement": "Rikenellaceae change in percent relative abundance", "value": "−4.391", "unit": "%"}, {"measurement": "Ruminococcaceae change in percent relative abundance", "value": "−1.494", "unit": "%"}, {"measurement": "Sphingomonadaceae change in percent relative abundance", "value": 0.000, "unit": "%"}, {"measurement": "Spirochaetaceae change in percent relative abundance", "value": "−0.086", "unit": "%"}, {"measurement": "Spiroplasmataceae change in percent relative abundance", "value": "−0.093", "unit": "%"}, {"measurement": "Staphylococcaceae change in percent relative abundance", "value": 0.001, "unit": "%"}, {"measurement": "Thermoanaerobacteraceae change in percent relative abundance", "value": "−0.010", "unit": "%"}, {"measurement": "Veillonellaceae change in percent relative abundance", "value": 0.002, "unit": "%"}, {"measurement": "Verrucomicrobiaceae change in percent relative abundance", "value": "−0.017", "unit": "%"}, {"measurement": "Xanthomonadaceae change in percent relative abundance", "value": 0.000, "unit": "%"}, {"measurement": "increases in Enterococcaceae or Enterobacteriaceae", "value": "did not lead to increases"}, {"measurement": "mice that maintained Bacteroidaceae", "value": "1/5"}, {"measurement": "mice with decreased Bacteroidaceae", "value": "3/5"}, {"measurement": "mice with increased Bacteroidaceae", "value": "1/5"}, {"measurement": "Bacteroidaceae change in percent relative abundance", "value": "−8.5", "unit": "%"}, {"measurement": "Streptococcaceae change in percent relative abundance", "value": 31.09, "unit": "%"}, {"measurement": "Bacteroidaceae change in percent relative abundance", "setting": "listed as Hyg", "value": "−8.462", "unit": "%"}, {"measurement": "Streptococcaceae change in percent relative abundance", "setting": "listed as Hyg", "value": 31.098, "unit": "%"}]}]}
